Results taken from patent publication US8796268B2, “Heteroaryls and uses thereof” (Millennium Pharmaceuticals, Inc., priority 2010, dated 2014).
Like-named read-outs stand apart in the source and are kept apart here.

Legend:
Type in all cases: biochemical
Human PI3K alpha = target: T1, Human PI3K alpha (Homo sapiens, UniProt P42336); assay: Human PI3K alpha enzyme assay (HTRF); details: for inhibition at 1.1 µM: read-out: p110 alpha Percent Inhibition
T1 construct: His (N); host or cells: SF9 insect cells (baculovirus)

Human PI3K delta = target: T2, Human PI3K delta (Homo sapiens, UniProt O00329); assay: Human PI3K delta enzyme assay (HTRF); details: for inhibition at 1 µM: read-out: p110 delta Percent Inhibition
T2 construct: His (N); host or cells: SF9 insect cells (baculovirus)
Procedure, shortened: (§1)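 Compounds were mixed with 25 uM ATP, then with 3.5 uM di-C8 PI(4,5)P2 and His-tagged PI3K isoform (β 5.25 nM, δ 0.75 nM, γ 5 nM) at pH 7.00. After 30 min at room temperature, EDTA stopped the reaction and PIP3 was measured by HTRF over 1 h.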

Human PI3K gamma = target: T3, Human PI3K gamma (Homo sapiens, UniProt P48736); assay: Human PI3K gamma enzyme assay (HTRF); details: for inhibition at 1 µM: read-out: p110 gamma Percent Inhibition
T3 construct: His (N); host or cells: SF9 insect cells (baculovirus)
Procedure, shortened: as §1

Human PI3K beta = target: T4, Human PI3K beta (Homo sapiens, UniProt P42338); assay: Human PI3K beta enzyme assay (HTRF); details: for inhibition at 1.1 µM: read-out: p110 beta Percent Inhibition
T4 construct: His (N); host or cells: SF9 insect cells (baculovirus)
Procedure, shortened: as §1

[1] = concentration not given, b1387 states 1.1 μM for PI3K α and β
[2] = concentration not given, b1389 states 1.0 μM for PI3K δ and γ

T1 sequence (P42336 whole entry): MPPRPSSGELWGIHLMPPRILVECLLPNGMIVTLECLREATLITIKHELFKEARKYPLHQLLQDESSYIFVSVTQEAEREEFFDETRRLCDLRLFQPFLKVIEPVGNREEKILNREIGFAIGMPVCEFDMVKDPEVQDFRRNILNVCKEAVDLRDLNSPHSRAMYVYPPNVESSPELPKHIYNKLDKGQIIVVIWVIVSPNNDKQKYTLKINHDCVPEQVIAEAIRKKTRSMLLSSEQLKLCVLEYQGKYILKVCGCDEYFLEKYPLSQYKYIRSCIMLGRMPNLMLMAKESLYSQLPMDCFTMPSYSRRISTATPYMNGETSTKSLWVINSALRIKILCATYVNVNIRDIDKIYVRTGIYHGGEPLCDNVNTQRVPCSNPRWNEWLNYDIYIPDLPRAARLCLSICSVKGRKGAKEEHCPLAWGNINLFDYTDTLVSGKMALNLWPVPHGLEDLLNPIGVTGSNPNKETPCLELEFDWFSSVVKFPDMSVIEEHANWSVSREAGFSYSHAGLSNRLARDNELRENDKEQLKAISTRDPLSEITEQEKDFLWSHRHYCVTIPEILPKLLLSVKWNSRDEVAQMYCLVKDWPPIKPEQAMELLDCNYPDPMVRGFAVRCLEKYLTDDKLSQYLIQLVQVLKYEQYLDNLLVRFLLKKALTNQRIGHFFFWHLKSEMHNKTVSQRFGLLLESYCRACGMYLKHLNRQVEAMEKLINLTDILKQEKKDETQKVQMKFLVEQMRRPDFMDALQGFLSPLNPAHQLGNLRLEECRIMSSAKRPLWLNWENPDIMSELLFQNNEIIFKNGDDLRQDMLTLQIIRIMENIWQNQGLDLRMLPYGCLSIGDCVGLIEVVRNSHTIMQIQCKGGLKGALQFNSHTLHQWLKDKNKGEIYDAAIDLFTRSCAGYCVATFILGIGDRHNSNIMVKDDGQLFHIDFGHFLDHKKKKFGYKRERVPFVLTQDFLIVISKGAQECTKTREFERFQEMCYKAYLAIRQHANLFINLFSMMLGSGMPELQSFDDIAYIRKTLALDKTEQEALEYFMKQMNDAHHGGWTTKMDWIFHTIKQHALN
T1 sequence (P27986 whole entry partner): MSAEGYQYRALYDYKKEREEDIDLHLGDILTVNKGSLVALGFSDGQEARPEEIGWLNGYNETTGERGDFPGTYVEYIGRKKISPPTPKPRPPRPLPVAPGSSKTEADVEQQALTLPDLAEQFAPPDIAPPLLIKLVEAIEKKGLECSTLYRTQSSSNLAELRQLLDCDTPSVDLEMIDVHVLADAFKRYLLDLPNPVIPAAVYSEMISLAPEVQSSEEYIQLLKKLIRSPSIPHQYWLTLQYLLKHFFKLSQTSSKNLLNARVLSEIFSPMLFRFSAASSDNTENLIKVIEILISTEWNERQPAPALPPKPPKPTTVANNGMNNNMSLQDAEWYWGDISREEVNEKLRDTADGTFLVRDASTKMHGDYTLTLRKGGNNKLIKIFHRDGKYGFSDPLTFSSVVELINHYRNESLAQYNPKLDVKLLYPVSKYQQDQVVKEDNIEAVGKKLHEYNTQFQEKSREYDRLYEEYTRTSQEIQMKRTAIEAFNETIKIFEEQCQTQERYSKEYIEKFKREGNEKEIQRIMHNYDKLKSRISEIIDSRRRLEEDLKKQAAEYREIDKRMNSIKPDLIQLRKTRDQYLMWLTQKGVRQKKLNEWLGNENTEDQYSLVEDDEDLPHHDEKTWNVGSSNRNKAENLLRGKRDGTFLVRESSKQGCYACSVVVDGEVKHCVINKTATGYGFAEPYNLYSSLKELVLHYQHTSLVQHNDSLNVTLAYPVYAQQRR
T4 sequence (P42338 whole entry): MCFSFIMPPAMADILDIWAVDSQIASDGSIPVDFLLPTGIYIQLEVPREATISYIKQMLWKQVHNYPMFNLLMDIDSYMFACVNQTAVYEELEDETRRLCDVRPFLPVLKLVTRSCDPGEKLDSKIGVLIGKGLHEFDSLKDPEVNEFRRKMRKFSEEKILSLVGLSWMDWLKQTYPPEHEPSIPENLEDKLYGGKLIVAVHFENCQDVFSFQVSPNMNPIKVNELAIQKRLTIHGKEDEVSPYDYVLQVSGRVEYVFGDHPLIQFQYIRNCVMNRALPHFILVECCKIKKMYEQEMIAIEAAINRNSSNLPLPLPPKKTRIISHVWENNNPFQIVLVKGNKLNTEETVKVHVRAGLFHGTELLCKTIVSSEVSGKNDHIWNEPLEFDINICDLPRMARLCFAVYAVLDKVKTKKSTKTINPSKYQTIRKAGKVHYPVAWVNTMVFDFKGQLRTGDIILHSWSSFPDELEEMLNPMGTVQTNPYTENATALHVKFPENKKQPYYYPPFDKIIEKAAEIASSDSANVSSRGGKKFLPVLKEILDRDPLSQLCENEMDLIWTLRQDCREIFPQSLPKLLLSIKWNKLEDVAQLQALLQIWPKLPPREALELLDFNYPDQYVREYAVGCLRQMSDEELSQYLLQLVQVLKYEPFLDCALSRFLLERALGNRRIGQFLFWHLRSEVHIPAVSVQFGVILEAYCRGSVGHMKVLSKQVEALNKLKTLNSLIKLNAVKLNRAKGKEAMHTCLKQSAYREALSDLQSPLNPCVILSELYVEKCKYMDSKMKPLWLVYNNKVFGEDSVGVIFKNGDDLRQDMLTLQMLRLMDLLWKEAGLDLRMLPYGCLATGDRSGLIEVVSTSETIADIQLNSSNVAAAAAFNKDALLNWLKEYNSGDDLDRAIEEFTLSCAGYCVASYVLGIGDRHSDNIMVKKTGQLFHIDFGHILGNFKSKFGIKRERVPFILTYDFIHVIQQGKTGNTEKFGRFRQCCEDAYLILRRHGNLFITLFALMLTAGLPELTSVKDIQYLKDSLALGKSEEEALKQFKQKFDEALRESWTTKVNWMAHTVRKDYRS
T4 sequence (P27986 whole entry partner): as the sequence (P27986 whole entry partner) above
T2 sequence (O00329 whole entry): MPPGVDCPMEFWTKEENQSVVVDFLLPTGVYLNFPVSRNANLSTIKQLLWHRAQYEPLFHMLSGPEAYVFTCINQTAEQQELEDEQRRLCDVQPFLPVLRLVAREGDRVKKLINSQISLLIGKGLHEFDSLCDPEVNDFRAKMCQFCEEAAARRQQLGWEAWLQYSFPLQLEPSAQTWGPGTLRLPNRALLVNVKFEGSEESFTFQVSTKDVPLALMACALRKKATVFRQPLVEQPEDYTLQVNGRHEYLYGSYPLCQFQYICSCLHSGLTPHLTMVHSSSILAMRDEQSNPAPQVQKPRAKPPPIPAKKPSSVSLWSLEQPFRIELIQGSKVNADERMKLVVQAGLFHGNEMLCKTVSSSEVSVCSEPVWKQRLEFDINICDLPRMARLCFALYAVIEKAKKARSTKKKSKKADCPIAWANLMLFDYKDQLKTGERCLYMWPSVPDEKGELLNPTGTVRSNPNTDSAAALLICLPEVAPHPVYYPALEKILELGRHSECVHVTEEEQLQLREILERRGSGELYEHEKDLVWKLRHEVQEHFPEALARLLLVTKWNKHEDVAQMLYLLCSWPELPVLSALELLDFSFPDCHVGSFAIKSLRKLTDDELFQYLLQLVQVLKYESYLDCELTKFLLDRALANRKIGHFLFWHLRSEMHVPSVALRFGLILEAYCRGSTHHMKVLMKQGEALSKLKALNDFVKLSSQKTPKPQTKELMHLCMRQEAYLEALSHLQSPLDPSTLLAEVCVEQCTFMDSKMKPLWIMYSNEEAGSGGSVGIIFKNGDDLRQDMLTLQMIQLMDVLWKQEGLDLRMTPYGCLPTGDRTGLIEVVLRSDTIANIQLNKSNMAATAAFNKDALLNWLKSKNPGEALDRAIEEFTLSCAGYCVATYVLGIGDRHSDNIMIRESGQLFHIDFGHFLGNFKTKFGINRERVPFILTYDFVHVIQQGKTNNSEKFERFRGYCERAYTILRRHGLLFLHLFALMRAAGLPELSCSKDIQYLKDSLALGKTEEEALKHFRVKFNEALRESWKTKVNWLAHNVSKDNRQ
T2 sequence (P27986 whole entry partner): as the sequence (P27986 whole entry partner) above
T3 sequence (P48736 whole entry): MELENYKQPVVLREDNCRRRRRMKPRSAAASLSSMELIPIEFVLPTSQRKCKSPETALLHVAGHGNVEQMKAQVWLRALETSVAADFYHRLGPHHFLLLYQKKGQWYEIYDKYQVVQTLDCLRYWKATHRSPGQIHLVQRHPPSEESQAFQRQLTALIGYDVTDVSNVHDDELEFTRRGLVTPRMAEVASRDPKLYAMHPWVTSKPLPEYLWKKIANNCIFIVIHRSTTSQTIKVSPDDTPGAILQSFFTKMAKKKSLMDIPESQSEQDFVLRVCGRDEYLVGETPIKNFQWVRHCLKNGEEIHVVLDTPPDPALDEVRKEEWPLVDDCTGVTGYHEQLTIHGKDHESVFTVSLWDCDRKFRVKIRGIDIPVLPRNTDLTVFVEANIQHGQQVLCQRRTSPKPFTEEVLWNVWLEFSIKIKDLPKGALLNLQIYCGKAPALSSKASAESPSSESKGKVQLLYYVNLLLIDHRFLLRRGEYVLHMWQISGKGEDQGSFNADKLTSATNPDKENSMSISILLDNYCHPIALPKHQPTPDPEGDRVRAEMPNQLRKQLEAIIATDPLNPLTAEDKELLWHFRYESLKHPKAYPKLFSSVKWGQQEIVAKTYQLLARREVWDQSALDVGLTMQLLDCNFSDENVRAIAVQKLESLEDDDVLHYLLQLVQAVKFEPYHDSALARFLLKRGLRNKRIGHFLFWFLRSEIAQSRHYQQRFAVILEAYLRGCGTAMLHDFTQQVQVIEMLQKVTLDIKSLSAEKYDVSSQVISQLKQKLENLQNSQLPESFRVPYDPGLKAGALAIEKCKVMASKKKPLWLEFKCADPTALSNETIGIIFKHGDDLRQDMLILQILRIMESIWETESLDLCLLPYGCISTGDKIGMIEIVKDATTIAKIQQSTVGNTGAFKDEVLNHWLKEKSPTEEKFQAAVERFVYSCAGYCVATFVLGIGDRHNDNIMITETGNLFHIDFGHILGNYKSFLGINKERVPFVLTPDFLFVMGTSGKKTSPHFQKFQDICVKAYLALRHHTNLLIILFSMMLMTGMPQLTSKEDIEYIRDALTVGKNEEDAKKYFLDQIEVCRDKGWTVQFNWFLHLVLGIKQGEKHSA

| inhibition at 1.1 µM (Human PI3K alpha; [1]) | inhibition at 1 µM (Human PI3K delta; [2]) | inhibition at 1 µM (Human PI3K gamma; [2]) | inhibition at 1.1 µM (Human PI3K beta; [1]) | SMILES | further results |
| --- | --- | --- | --- | --- | --- |
| 21% | 98% | 23% | 98% | CC(c1ccc2ccccc2c1)c1nc(N2CCOCC2)sc1C(=O)O (stereo not drawn) [Compound 346] |  |
| 19% | 80% | 15% | 87% | CC(=O)NC(c1ccc(Cl)cc1)c1c(C(=O)O)sc(N2CCOCC2)c1C#N (stereo not drawn) [Compound 353] |  |
| 89% | 99% | 40% | 111% | COC(=O)NC(c1ccc2ccccc2c1)c1c(C(=O)O)sc(N2CCOCC2)c1C#N (stereo not drawn) [Compound 354] |  |
| 89% | 110% | 79% | 110% | N#Cc1c(N2CCOCC2)sc(C(=O)O)c1C(N)c1ccc2ccccc2c1 (stereo not drawn) [Compound 357] |  |
| 104% | 111% | 60% | 115% | COc1ccc2ccc(Cc3c(C(=O)O)sc(N4CCOCC4)c3C#N)cc2c1 [Compound 361] |  |
| 89% |  | 87% | 112% | COC(c1ccc2ccccc2c1)c1c(C(=O)O)sc(N2CCOCC2)c1C#N (stereo not drawn) [Compound 368, 4-cyano-3-[methoxy(2-naphthyl)methyl]-5-(morpholin-4-yl)thiophene-2-carboxylic acid] | p110 delta Percent Inhibition (Human PI3K delta; [2]): 113% |

Continued, compound first:

| SMILES | inhibition at 1.1 µM (Human PI3K alpha; [1]) | inhibition at 1 µM (Human PI3K delta; [2]) | inhibition at 1 µM (Human PI3K gamma; [2]) | inhibition at 1.1 µM (Human PI3K beta; [1]) | further results |
| --- | --- | --- | --- | --- | --- |
| O=C(O)c1sc(N2CCOCC2)nc1Cc1cc2ccccc2o1 [Compound 341] | 30% | 98% | 30% | 110% |  |
| CC(C)(C)[S+]([O-])NC(c1ccc(Cl)c(Cl)c1)c1c(C(=O)O)sc(N2CCOCC2)c1C#N (stereo not drawn) [Compound 342] | 34% | 97% | 12% | 80% |  |
| O=C(O)c1sc(N2CCOCC2)nc1Cc1ccc2ccncc2c1 [Compound 344] | 24% | 102% | 59% | 103% |  |
| N#Cc1c(N2CCOCC2)sc(C(=O)O)c1C(CCO)c1ccc(Cl)c(Cl)c1 (stereo not drawn) [Compound 347, 4-cyano-3-[1-(3,4-dichlorophenyl)-3-hydroxypropyl]-5-(morpholin-4-yl)thiophene-2-carboxylic acid] | 71% | 111% | 60% | 102% |  |
| O=C(O)Cc1sc(N2CCOCC2)nc1Cc1ccc(Cl)c(Cl)c1 [Compound 348, 2-(4-(3,4-dichlorobenzyl)-2-morpholinothiazol-5-yl)acetic acid] | 4% | 56% | 4% | 63% |  |
| Clc1ccc(Cc2nc(N3CCOCC3)sc2Cc2nnn[nH]2)cc1Cl [Compound 350, 4-(5-((1H-tetrazol-5-yl)methyl)-4-(3,4-dichlorobenzyl)thiazol-2-yl)morpholine] | 6% | 41% | 3% | 58% |  |
| CN(C)C(c1ccc(Cl)cc1)c1c(C(=O)O)sc(N2CCOCC2)c1C#N (stereo not drawn) [Compound 351] | 15% | 79% | 46% | 82% |  |
| CS(=O)(=O)NC(=O)c1sc(N2CCOCC2)c(C#N)c1Cc1ccc(Cl)c(Cl)c1 [Compound 352, 4-cyano-3-(3,4-dichlorobenzyl)-N-(methylsulfonyl)-5-morpholinothiophene-2-carboxamide] | 18% | 84% | 14% | 85% |  |
| C=CCC(c1ccc(Cl)c(Cl)c1)c1c(C(=O)O)sc(N2CCOCC2)c1C#N (stereo not drawn) [Compound 355, 4-cyano-3-[1-(3,4-dichlorophenyl)but-3-en-1-yl]-5-(morpholin-4-yl)thiophene-2-carboxylic acid] | 44% | 105% | 53% | 100% |  |
| c1ccc2cc(Cc3cc(N4CCOCC4)sc3-c3nnn[nH]3)ccc2c1 [Compound 356] | 11% | 72% | 23% | 95% |  |
| N#Cc1c(N2CCOCC2)sc(C(=O)O)c1C(F)(F)c1ccc(Cl)cc1 [Compound 358] | 13% | 51% | 32% | 43% |  |
| N#Cc1c(N2CCOCC2)sc(C(=O)O)c1Cc1cc2ccc(Cl)cc2[nH]1 [Compound 359] | 90% | 102% | 64% | 109% |  |
| c1ccc2cc(Cc3nc(N4CCOCC4)sc3-c3nnn[nH]3)ccc2c1 [Compound 360, 4-[4-(2-naphthylmethyl)-5-(1H-tetrazol-5-yl)-1,3-thiazol-2-yl]morpholine] |  |  |  |  | p110 alpha Percent Inhibition (Human PI3K alpha; [1]): 30%; p110 delta Percent Inhibition (Human PI3K delta; [2]): 110%; p110 gamma Percent Inhibition (Human PI3K gamma; [2]): 49%; p110 beta Percent Inhibition (Human PI3K beta; [1]): 106% |
| CN(C)C(c1ccc(Cl)c(Cl)c1)c1c(C(=O)O)sc(N2CCOCC2)c1C#N (stereo not drawn) [Compound 362, 4-cyano-3-[(3,4-dichlorophenyl)(dimethylamino)methyl]-5-(morpholin-4-yl)thiophene-2-carboxylic acid] |  |  |  |  | p110 alpha Percent Inhibition (Human PI3K alpha; [1]): 80%; p110 delta Percent Inhibition (Human PI3K delta; [2]): 104%; p110 gamma Percent Inhibition (Human PI3K gamma; [2]): 44%; p110 beta Percent Inhibition (Human PI3K beta; [1]): 116% |
| N#Cc1c(N2CCOCC2)sc(C(=O)O)c1C(CCO)c1ccc2ccccc2c1 (stereo not drawn) [Compound 363] |  |  |  |  | p110 alpha Percent Inhibition (Human PI3K alpha; [1]): 99%; p110 delta Percent Inhibition (Human PI3K delta; [2]): 106%; p110 gamma Percent Inhibition (Human PI3K gamma; [2]): 65%; p110 beta Percent Inhibition (Human PI3K beta; [1]): 113% |
| N#Cc1c(N2CCOCC2)sc(C(=O)O)c1C(F)c1ccc2ccccc2c1 (stereo not drawn) [Compound 364] |  |  |  |  | p110 alpha Percent Inhibition (Human PI3K alpha; [1]): 88%; p110 delta Percent Inhibition (Human PI3K delta; [2]): 101%; p110 gamma Percent Inhibition (Human PI3K gamma; [2]): 56%; p110 beta Percent Inhibition (Human PI3K beta; [1]): 109% |
| N#Cc1c(N2CCOCC2)sc(C(=O)O)c1C(CCF)c1ccc2ccccc2c1 (stereo not drawn) [Compound 365] |  |  |  |  | p110 alpha Percent Inhibition (Human PI3K alpha; [1]): 105%; p110 delta Percent Inhibition (Human PI3K delta; [2]): 112%; p110 gamma Percent Inhibition (Human PI3K gamma; [2]): 63%; p110 beta Percent Inhibition (Human PI3K beta; [1]): 117% |
| CC(c1ccc(Cl)c(Cl)c1)c1c(C(=O)O)sc(N2CCOCC2)c1C#N (stereo not drawn) [Compound 366] |  |  |  |  | p110 alpha Percent Inhibition (Human PI3K alpha; [1]): 66%; p110 delta Percent Inhibition (Human PI3K delta; [2]): 113%; p110 gamma Percent Inhibition (Human PI3K gamma; [2]): 77%; p110 beta Percent Inhibition (Human PI3K beta; [1]): 113% |
| CC(c1ccc2ccccc2c1)c1c(C(=O)O)sc(N2CCOCC2)c1C#N (stereo not drawn) [Compound 367, 4-cyano-5-(morpholin-4-yl)-3-[1-(2-naphthyl)ethyl]thiophene-2-carboxylic acid] |  |  |  |  | inhibition at 1.1 µM (Human PI3K alpha): 99%; inhibition at 1 µM (Human PI3K delta): 116%; inhibition at 1 µM (Human PI3K gamma): 72%; inhibition at 1.1 µM (Human PI3K beta): 110% |
| CC(c1ccc2cc(F)ccc2c1)c1c(C(=O)O)sc(N2CCOCC2)c1C#N (stereo not drawn) [Compound 369] |  |  |  |  | p110 alpha Percent Inhibition (Human PI3K alpha; [1]): 109%; p110 delta Percent Inhibition (Human PI3K delta; [2]): 109%; p110 gamma Percent Inhibition (Human PI3K gamma; [2]): 65%; p110 beta Percent Inhibition (Human PI3K beta; [1]): 115% |
| O=C(O)c1[se]c(N2CCOCC2)nc1Cc1ccc(Cl)cc1 [Compound 370, 4-(4-chlorobenzyl)-2-morpholino-1,3-selenazole-5-carboxylic acid] |  |  |  |  | inhibition at 1.1 µM (Human PI3K alpha): 22%; inhibition at 1 µM (Human PI3K delta): 62%; inhibition at 1 µM (Human PI3K gamma): 12%; inhibition at 1.1 µM (Human PI3K beta): 98% |
